Assay results reported in patent EP2589390B1, “PHARMACEUTICAL COMPOSITION FOR TREATING CENTRAL AND PERIPHERAL NERVOUS SYSTEM DISEASES OF VASCULAR, TRAUMATIC, TOXIC, HYPOXIC AND […]” (Aktsionernoe Obschestvo "Pharm-Sintez", priority 2010, dated 2012).

Test system: mice bone marrow polychromatophils
Details: positive control
[1] = 20 mg/kg intraperitoneally in male mice

From the text: The Study purpose is to reveal and quantitatively assess the cytogenetic activity (mutagenicity) of the pharmacologic drugs in the mammalian bone marrow polychromatophils. The method's base is the micronuclei cells microscopic registration.
The experimental used the male and female F1(CBAx C57BI6/J) hybrid mice, two-month age, 18 to 20 grams body weight. Every group included 6 animals. The animals were kept under the 12-hour light regime, with freely available water and food. The single and five fold administration protein-polypeptide complex mutagenicity assessment animal experiments were in compliance with the official protocols. Three experimental series with relevant controls were performed: therapeutic dosage: males, single administration; subtoxic dose: males, single administration; and therapeutic dosage: males and females, five fold administration.
The protein-polypeptide complex mutagenicity assessment dose was defined on the basis of the maximum recommended daily therapeutic dose (TD) for human. The 2 ml at 0.1 mg/ml concentration IV administration is recommended. The therapeutic dose for human, including infant, may be 0.05 mg/kg/day. To calculate the mice experimental dose, the conversion factor is recommended to take into account the human and murine body surface area to body mass ratio. In our study it was 8.33.
For the subtoxic dose the maximum possible experimental one was used, 10 mg/kg, as the substance concentration was 0.1 mg/ml; the conventional total substance administered to mice is 0.1 ml per 10 g body weight.
Seven groups of animals, four experimental and three control ones, were formed. […]
The bone marrow cells preparation for the micronuclei account were made in conventional manner, in accordance with the "Micronuclear Test Environmental Factors Mutagenicity Assessment in Mammalia Organs Cells" Guidelines. […] 2000 polychromatophils per animal were then analyzed with coded preparations. At the 500 erythrocytes count the polychromatophil to normochromatic erythrocytes ratio was determined. […]

Structure (SMILES): O=P1(N(CCCl)CCCl)NCCCO1 (stereo not drawn) [cyclophosphamide]
- higher micronuclei cells vs. control [1]: 19.6 fold
- micronuclei cells [1]: 62.1 ‰
- polychromatophil to normochromatic erythrocytes ratio (20 mg/kg intraperitoneally, P < 0.005 vs control): shift to the latter ones
